Source: US8110703B2, “Retinoid derivative and pharmaceutical composition and use thereof” (Anhui Medical University, priority 2008, dated 2012)
Values joined by “and” are separate entries in the source; they are usually repeats but may differ in a detail not shown here. Identical values can stand only once.

Experiments:
[1] = test system: A549 lung cancer cells; experiment: MTT cell growth and proliferation experiment, A549; assay type: cell-based; design: key to Inhibition Rate: (control OD570 − test OD570)/control OD570, as fraction
Description: 1.1 Reagents 12 retinoic acid derivatives with the final concentrations of 1 ug/ml, 5 ug/ml and 10 ug/ml are synthesized by the Pharmaceutical College of Anhui Medical University using DMSO and anhydrous ethanol, separately packaged for storage at −20° C. and kept out of the light when used, and the final concentration of DMSO is less than 0.1%. MTT is purchased from Sigma Corp. The Coulter DNA detection kit is presented by the Central Lab of Anhui Provincial Hospital. AFP and γ-GT are provided by the Clinical Lab of No. 105 Hospital of PLA. Apoptosis-Hoechst staining kit is purchased from Beyotime Company.
1.2 Cell Culture A549, and HpeG2 cells are stored by our lab. Cell growth condition: DMEM (from GIBICO Company) culture solution is added with 10% of calf serum (purchased from the Hangzhou Sijiqing Biological Engineering Material Co., Ltd.) to culture in a cell culture incubator (37° C., 5% CO2) with saturated humidity.
1.3 Cell Growth and Proliferation Experiments MTT process is used. Cells in the logarithmic phase are picked and seeded on a 96-hole culture board with a cell concentration of 5×10^7/L. Each hole of the board is 200 ul. The next day after the adherence, the original solution is discarded, and the culture solution is added. The cells are divided into 1 ug/ml retinoic acid derivative groups, 5 ug/ml retinoic acid derivative groups, 10 ug/ml retinoic acid derivative groups, blank control groups, cell control groups, solvent control groups (1‰ DMSO and anhydrous ethanol) (17 in total) according to the concentrations thereof, incubated for 3d, added with MTT (5 g/L) of 20 ul/hole for incubation at 37° C. for 4 h. The original solution is carefully discarded and dried, and DMSO of 20 ul/hole is added to dissolve crystals, followed by vibrating for 10 min and determining the OD value at 570 nm. Each concentration is corresponding to 5 holes, and each group calculates the average of 3 experiments to calculate the inhibition rate to the cell growth according to the optical density (OD) average of each hole in each group and the following equation: inhibition rate %=(control hole OD570−experimental hole OD570)/control hole OD5700*100%. The process above is repeated for three times. The second experiment takes the maximum concentration (10 […]) for culture respectively for 1, 2, 3 and 7 days and repeat for three times.

[2] = test system: K562 cells; experiment: Cell cycle analysis by flow cytometer, K562; assay type: cell-based; design: S %: dose or concentration left out as unconfirmed; settings: 72 h
Description: Retinoic acid derivatives and fenretinide are prepared as a storage solution of 10 mg/mL by anhydrous ethanol and stored at […] and kept out of light.
NB4 cells and K562 cells are inoculated with an initial concentration of 2*10^5/ml in the RPMI1640 culture solution having 10% of calf serum (FBS), 100 u/ml of penicillin, 100 Lg/ml of streptomycin and 2 mmol/L of glutamine for suspension culture (37° C., 5% CO2). Change the solution every 2-3 days.
For the cells above acted by the retinoic acid derivatives and fenretinide ([…]) for 72 h, about 10^6 of them are collected, washed by PBS twice, fixed by 70% of cold ethanol over 24 h, washed by PBS twice, added with 5 ug/ml of propidium iodide for staining and detected by a flow cytometer from which the data are analyzed and processed by the multi-cycle software.

[3] = patient, dosage 200 mg/day; cited from earlier work
[4] = test system: apoptosis; settings: cited from earlier work
[5] = A549, MTT time gradient, 10 ug/ml, 1 d
[6] = A549, MTT time gradient, 10 ug/ml, 1 d, fraction
[7] = A549, MTT time gradient, 10 ug/ml, 2 d
[8] = A549, MTT time gradient, 10 ug/ml, 2 d, fraction
[9] = A549, MTT time gradient, 10 ug/ml, 3 d
[10] = A549, MTT time gradient, 10 ug/ml, 3 d, fraction
[11] = A549, MTT time gradient, 10 ug/ml, 7 d
[12] = A549, MTT time gradient, 10 ug/ml, 7 d, fraction
[13] = A549, MTT OD 570 nm, 1 ug/ml, 3 d, solvent DMSO (D)
[14] = A549, MTT OD 570 nm, 5 ug/ml, 3 d, solvent DMSO (D)
[15] = A549, MTT OD 570 nm, 10 ug/ml, 3 d, solvent DMSO (D)
[16] = A549, MTT, 1 ug/ml, 3 d, solvent DMSO (D), given as fraction
[17] = A549, MTT, 5 ug/ml, 3 d, solvent DMSO (D), given as fraction
[18] = A549, MTT, 10 ug/ml, 3 d, solvent DMSO (D), given as fraction

CC1=C(/C=C/C(C)=C/C=C/C(C)=C/C(=O)Oc2ccccc2C(F)(F)F)C(C)(C)CCC1 [Example 2a-03, (2-trifluoromethylphenyl)-(all-trans)-3,7-dimethyl-9-(2,6,6-trimethyl-1-cyclohexen-1-yl)-2,4,6,8-nonatetraenoate]
OD Value (x ± s) ([1]; A549, MTT OD 570 nm, 1 ug/ml, 3 d, solvent ethanol): 1.639 ± 0.115 | OD Value (x ± s) ([1]; A549, MTT OD 570 nm, 5 ug/ml, 3 d, solvent ethanol): 1.555 ± 0.162 | OD Value (x ± s) ([1]; A549, MTT OD 570 nm, 10 ug/ml, 3 d, solvent ethanol): 1.382 ± 0.133 | OD Value (x ± s) [1, 5]: 0.902 ± 0.055 | Inhibition Rate [1, 6]: 0.016 | OD Value (x ± s) [1, 7]: 1.066 ± 0.015 | Inhibition Rate [1, 8]: 0.271 | OD Value (x ± s) [1, 9]: 0.635 ± 0.033 | Inhibition Rate [1, 10]: 0.315 | OD Value (x ± s) [1, 11]: 1.393 ± 0.043 | Inhibition Rate [1, 12]: 0.328 | Inhibition Rate ([1]; A549, MTT, 1 ug/ml, 3 d, solvent ethanol, given as fraction): 0.122 | Inhibition Rate ([1]; A549, MTT, 5 ug/ml, 3 d, solvent ethanol, given as fraction): 0.167 | Inhibition Rate ([1]; A549, MTT, 10 ug/ml, 3 d, solvent ethanol, given as fraction): 0.260 | G1 % [2]: 45.1% | G2 % [2]: 7.6% | S % [2]: 47.3%

CC1=C(/C=C/C(C)=C/C=C/C(C)=C/C(=O)Nc2cccc(C(F)(F)F)c2)C(C)(C)CCC1 [Example 3a-02, (3-trifluoromethylphenyl)-(all-trans)-3,7-dimethyl-9-(2,6,6-trimethyl-1-cyclohexen-1-yl)-2,4,6,8-nonatetraenoic acid amide]
OD Value (x ± s) [1, 13]: 1.551 ± 0.083 and 1.517 ± 0.100 | OD Value (x ± s) [1, 14]: 1.510 ± 0.193 and 1.357 ± 0.159 | OD Value (x ± s) [1, 15]: 1.296 ± 0.192 and 0.939 ± 0.040 | OD Value (x ± s) [1, 5]: 0.617 ± 0.072 | Inhibition Rate [1, 6]: 0.327 | OD Value (x ± s) [1, 7]: 0.703 ± 0.025 | Inhibition Rate [1, 8]: 0.519 | OD Value (x ± s) [1, 9]: 0.229 ± 0.010 | Inhibition Rate [1, 10]: 0.753 | OD Value (x ± s) [1, 11]: 0.106 ± 0.035 | Inhibition Rate [1, 12]: 0.949 | Inhibition Rate [1, 16]: 0.169 and 0.187 | Inhibition Rate [1, 17]: 0.191 and 0.273 | Inhibition Rate [1, 18]: 0.305 and 0.497 | G1 % [2]: 39.7% | G2 % [2]: 6.0% | S % [2]: 54.2%

CC1=C(/C=C/C(C)=C/C=C/C(C)=C/C(=O)Oc2ccc(N)cc2C(F)(F)F)C(C)(C)CCC1 [Example 4a-02, (4-amino-2-trifluoromethylphenyl)-(all-trans)-3,7-dimethyl-9-(2,6,6-trimethyl-1-cyclohexen-1-yl)-2,4,6,8-nonatetraenoate]
OD Value (x ± s) [1, 13]: 1.644 ± 0.272 and 2.020 ± 0.317 | OD Value (x ± s) [1, 14]: 1.618 ± 0.087 and 1.979 ± 0.138 | OD Value (x ± s) [1, 15]: 1.808 ± 0.143 | OD Value (x ± s) [1, 5]: 0.815 ± 0.045 | Inhibition Rate [1, 6]: 0.111 | OD Value (x ± s) [1, 7]: 1.176 ± 0.021 | Inhibition Rate [1, 8]: 0.196 | OD Value (x ± s) [1, 9]: 0.720 ± 0.025 | Inhibition Rate [1, 10]: 0.223 | OD Value (x ± s) [1, 11]: 1.144 ± 0.150 | Inhibition Rate [1, 12]: 0.448 | G1 % [2]: 33.1% | G2 % [2]: 11.5% | S % [2]: 55.4%

CC1=C(/C=C/C(C)=C/C=C/C(C)=C/C(=O)Nc2cccc(OC(F)(F)F)c2)C(C)(C)CCC1 [Example 6a-02, (3-trifluoromethoxyphenyl)-(all-trans)-3,7-dimethyl-9-(2,6,6-trimethyl-1-cyclohexen-1-yl)-2,4,6,8-nonatetraenoic acid amide]
OD Value (x ± s) [1, 13]: 1.637 ± 0.146 and 1.614 ± 0.146 | OD Value (x ± s) [1, 14]: 1.613 ± 0.120 and 1.580 ± 0.096 | OD Value (x ± s) [1, 15]: 1.362 ± 0.077 and 1.498 ± 0.218 | OD Value (x ± s) [1, 5]: 0.774 ± 0.030 | Inhibition Rate [1, 6]: 0.156 | OD Value (x ± s) [1, 7]: 1.065 ± 0.045 | Inhibition Rate [1, 8]: 0.272 | OD Value (x ± s) [1, 9]: 0.408 ± 0.028 | Inhibition Rate [1, 10]: 0.561 | OD Value (x ± s) [1, 11]: 0.666 ± 0.049 | Inhibition Rate [1, 12]: 0.679 | Inhibition Rate [1, 16]: 0.123 and 0.135 | Inhibition Rate [1, 17]: 0.136 and 0.154 | Inhibition Rate [1, 18]: 0.270 and 0.197 | G1 % [2]: 32.2% | G2 % [2]: 10.9% | S % [2]: 56.8%

CC1=C(/C=C/C(C)=C/C=C/C(C)=C/C(=O)Nc2ccc(O)cc2)C(C)(C)CCC1 [Fenretinide, reference compound]
plasma concentration [3]: lower than 1 μM | effective concentration required to generate apoptosis in vivo [4]: 101 µM | OD Value (x ± s) ([1]; A549, MTT time gradient, in DMSO, 1 d, concentration not given): 0.883 ± 0.062 | Inhibition Rate ([1]; A549, MTT time gradient, in DMSO, 1 d, concentration not given, fraction): 0.037 | OD Value (x ± s) ([1]; A549, MTT time gradient, in DMSO, 2 d, concentration not given): 1.360 ± 0.052 | Inhibition Rate ([1]; A549, MTT time gradient, in DMSO, 2 d, concentration not given, fraction): 0.070 | OD Value (x ± s) ([1]; A549, MTT time gradient, in DMSO, 3 d, concentration not given): 0.845 ± 0.034 | Inhibition Rate ([1]; A549, MTT time gradient, in DMSO, 3 d, concentration not given, fraction): 0.089 | OD Value (x ± s) ([1]; A549, MTT time gradient, in DMSO, 7 d, concentration not given): 1.835 ± 0.030 | Inhibition Rate ([1]; A549, MTT time gradient, in DMSO, 7 d, concentration not given, fraction): 0.115 | OD Value (x ± s) ([1]; A549, MTT time gradient, in ethanol, 1 d, concentration not given): 0.887 ± 0.057 | Inhibition Rate ([1]; A549, MTT time gradient, in ethanol, 1 d, concentration not given, fraction): 0.033 | OD Value (x ± s) ([1]; A549, MTT time gradient, in ethanol, 2 d, concentration not given): 1.333 ± 0.046 | Inhibition Rate ([1]; A549, MTT time gradient, in ethanol, 2 d, concentration not given, fraction): 0.089 | OD Value (x ± s) ([1]; A549, MTT time gradient, in ethanol, 3 d, concentration not given): 0.836 ± 0.034 | Inhibition Rate ([1]; A549, MTT time gradient, in ethanol, 3 d, concentration not given, fraction): 0.099 | OD Value (x ± s) ([1]; A549, MTT time gradient, in ethanol, 7 d, concentration not given): 1.851 ± 0.030 | Inhibition Rate ([1]; A549, MTT time gradient, in ethanol, 7 d, concentration not given, fraction): 0.108 | OD Value (x ± s) ([1]; A549, MTT, 3 d, Table 1 control drug in DMSO, concentration not given): 1.724 ± 0.080 | Inhibition Rate ([1]; A549, MTT, 3 d, Table 1 control drug in DMSO, concentration not given, fraction): 0.076 | OD Value (x ± s) ([1]; A549, MTT, 3 d, Table 1 control drug in ethanol, concentration not given): 1.710 ± 0.056 | Inhibition Rate ([1]; A549, MTT, 3 d, Table 1 control drug in ethanol, concentration not given, fraction): 0.083 | G1 % [2]: 33.5% | G2 % [2]: 9.0% | S % [2]: 57.5%
